{
  "source": "paper PMC9992518",
  "about": "“Structural basis of peptide recognition and activation of endothelin receptors” (Nature Communications, 2023)",
  "origin": "cited, not measured here",
  "key": {"ETAR [1]": {"system": "ETAR"}, "ETBR [2]": {"system": "ETBR", "set-up": "method as in earlier work", "conditions": "ETBR activated by ET-3"}, "ETAR [3]": {"target": "ETAR", "from_the_text": "(§1) S6c bears an identical substitution from K9 to E9 compared with s6b (Fig. 1a). The charge of the ninth residue has been thought to determine the ETR selectivity of s6c over s6b[33], supporting the importa ...", "remark": "listed apart in the source"}, "ETBR [4]": {"target": "ETBR", "from_the_text": "as §1"}, "LgBiT": {"system": "LgBiT", "conditions": "NanoBiT complementary peptide", "from_the_text": "NanoLuc Binary Technology (NanoBiT, Promega) is originally a structurally complementary reporter system to evaluate protein-protein interaction in cells. NanoBiT is composed of a large subunit (LgBiT, 18 kDa) and an 11 amino acid complementary peptide (SmBiT, peptide, […]) with low affinity for LgBiT, both of which are connected to two interacting target proteins of interest, respectively. When the two proteins interact, the two subunits assemble into an active enzyme and generate a bright luminescent signal in the presence of a substrate. To improve the homogeneity and stability o ..."}},
  "data": [
    {"substance": "ET-3: endothelin, 21-amino-acid peptide hormone", "values": [
      {"measurement": "fold weaker affinity for ETAR", "setting": "ETAR [1]; ETAR, relative to ET-1 and ET-2", "result": 100, "unit": "fold"},
      {"measurement": "effect on ET-1-mediated effects upon ETBR activation (in words)", "setting": "ETBR [2]", "result": "can inhibit the ET-1-mediated effects"}
    ]},
    {"substance": "Sarafotoxin s6c", "values": [
      {"measurement": "ETBR selectivity (in words)", "setting": "ETAR [1]; from reduced affinity for ETAR compared with s6b", "result": "substantial ETBR selectivity"}
    ]},
    {"substance": "Succinyl-[Glu^9, Ala^11,15]-ET-1(8-21) [IRL1620]", "values": [
      {"measurement": "Ki", "setting": "ETAR [3]", "result": 1900, "unit": "nM"},
      {"measurement": "Ki", "setting": "ETBR [4]", "result": 0.016, "unit": "nM"}
    ]},
    {"substance": "VSGWRLFKKIS [HiBiT]", "values": [
      {"measurement": "affinity for LgBiT (in words)", "setting": "LgBiT", "result": "high affinity"}
    ]},
    {"substance": "VTGYRLFEEIL [SmBiT]", "values": [
      {"measurement": "affinity for LgBiT (in words)", "setting": "LgBiT", "result": "low affinity"}
    ]}
  ]
}
